Consider three substances from patent US20130261066A1, “TREATMENT OF INFLAMMATORY BOWEL DISEASES USING A TRIPEPTIDE” (THE RESEARCH FOUNDATION OF STATE UNIVERSITY OF NEW YORK, priority 2010, published 2013).

The test system of the test is NF-kB. Put plainly: Inhibition of NF-kB by D-amino-acid and cyclized peptides. The source says:
The following acetylated peptides, composed of D amino acids, were synthesized and tested for inhibition of NF-kB: 1) Ac-dGln-dALa-dTrp (SEQ ID NO:9); and 2) Ac-dPhe-dLeu-dLys-dGln-dALa-dTrp (SEQ ID NO:10). […] The following acetylated peptide, cyclized through its N- and C-terminals, was synthesized and tested for inhibition of NF-kB: Ac-Phe-Leu-Lys-Gln-Ala-Trp (SEQ ID NO:6).
For “Ac-Phe-Leu-Lys-Gln-Ala-Trp (Ac-cyclo(FLKQAW))”, the “inhibition of NF-kB” value is “effective inhibition of NF-kB”.

Consider Ac-dGln-dALa-dTrp, for which the “inhibition of NF-kB” value is listed as “effective inhibition of NF-kB”.

For the substance Ac-dPhe-dLeu-dLys-dGln-dALa-dTrp, the “inhibition of NF-kB” value was “effective inhibition of NF-kB”.
